Experimental findings from US12291548B2, “Compounds, compositions, and methods for the treatment of disease” (priority 2018, dated 2025) are described below.

Assay [1] has as its target T1, HAQ isoform human STING (hSTING) (Homo sapiens, UniProt Q86WV6, G230A/H232R/R293Q/R71H).
T1 construct: THP1 cells naturally expressing HAQ isoform human STING (hSTING); endogenous in cells; host or cells: THP1 cells stably transfected with ISRE-inducible Lucia and NF-κB inducible SEAP reporters
The experiment in a line: THP1 dual reporter assay (ISRE-inducible Lucia, NF-κB inducible SEAP). In kind it is cell-based. The settings on record: THP1 cells naturally expressing HAQ hSTING, 20 h incubation, vs DMSO-treated sample; for ISRE (IRF) reporter activity, induction: QUANTI-luc. The method, then:
THP1 cells naturally expressing HAQ isoform human STING (hSTING), stably transfected with an ISRE-inducible Lucia and NF-κB inducible SEAP were treated with various concentrations of Cmd 1 or DMSO control. After 20 h incubation, levels of Lucia and SEAP were measured using QUANTI-luc and QUANTI-Blue to measure and ISRE and NF-κB reporter activity respectively. Percent induction was calculated from fold change in activity compared to DMSO-treated sample.
THP1 cells naturally expressing HAQ isoform human STING (hSTING), stably transfected with an ISRE-inducible Lucia and NF-κB inducible SEAP were treated with various concentrations of Cmd 1 or DMSO control. After 20 h incubation, levels of Lucia and SEAP were measured using QUANTI-luc and QUANTI-Blue to measure and ISRE and NF-κB reporter activity respectively. Percent induction was calculated from fold change in activity compared to DMSO-treated sample. EC50 values were generated by curve fit in Xlfit.
THP1 cells naturally expressing HAQ isoform human STING (hSTING), stably transfected with an ISRE-inducible Lucia and NF-κB inducible SEAP were treated with various concentrations of Cmd 2 or DMSO control. After 20 h incubation, levels of Lucia and SEAP were measured using QUANTI-luc and QUANTI-Blue to measure and ISRE and NF-κB reporter activity, respectively, in Xlfit. Percent induction was calculated from fold change in activity compared to DMSO-treated sample.
THP1 cells naturally expressing HAQ isoform human STING (hSTING), stably transfected with an ISRE-inducible Lucia and NF-κB inducible SEAP were treated with various concentrations of Cmd 2 or DMSO control. After 20 h incubation, levels of Lucia and SEAP were measured using QUANTI-luc and QUANTI-Blue to measure and ISRE and NF-κB reporter activity, respectively, in Xlfit. Percent induction was calculated from fold change in activity compared to DMSO-treated sample. EC50 values were generated by curve fit.
In general terms: Reporter assays use an easily measured gene product as a stand-in for the process of interest.

The next assay addresses T2, mouse STING (Mus musculus, UniProt Q3TBT3).
T2 construct: Mouse derived RAW macrophages stably transfected with an ISRE-inducible Lucia; endogenous in cells; host or cells: Mouse derived RAW macrophages stably transfected with an ISRE-inducible Lucia reporter
T2 sequence (Q3TBT3 1-378): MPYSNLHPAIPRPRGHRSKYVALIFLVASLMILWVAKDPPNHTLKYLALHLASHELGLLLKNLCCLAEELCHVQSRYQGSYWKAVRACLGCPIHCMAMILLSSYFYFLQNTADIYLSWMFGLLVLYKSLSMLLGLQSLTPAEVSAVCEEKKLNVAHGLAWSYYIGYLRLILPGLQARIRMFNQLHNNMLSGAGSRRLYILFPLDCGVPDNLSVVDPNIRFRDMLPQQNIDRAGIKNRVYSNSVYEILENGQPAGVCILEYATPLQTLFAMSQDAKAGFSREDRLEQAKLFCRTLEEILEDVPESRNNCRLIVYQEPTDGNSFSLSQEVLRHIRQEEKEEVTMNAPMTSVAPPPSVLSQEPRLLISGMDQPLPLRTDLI
Description: RAW macrophage ISRE-inducible Lucia reporter assay. In kind it is cell-based. The settings on record: mouse derived RAW macrophages, 20 h incubation, QUANTI-luc, vs DMSO-treated sample. The method, then:
Mouse derived RAW macrophages stably transfected with an ISRE-inducible Lucia were treated with various concentrations of compound 1 or DMSO control. After 20 h incubation, levels of Lucia were measured using QUANTI-luc to measure and ISRE reporter activity. Percent induction was calculated from fold change in activity compared to DMSO-treated sample.
Mouse derived RAW macrophages stably transfected with an ISRE-inducible Lucia were treated with various concentrations of compound 1 or DMSO control. After 20 h incubation, levels of Lucia were measured using QUANTI-luc to measure and ISRE reporter activity. Percent induction was calculated from fold change in activity compared to DMSO-treated sample. EC50 values were generated by curve fit in Xlfit.
Mouse derived RAW macrophages stably transfected with an ISRE-inducible Lucia were treated with various concentrations of compound 2 or DMSO control. After 20 h incubation, levels of Lucia were measured using QUANTI-luc to measure and ISRE reporter activity. Percent induction was calculated from fold change in activity compared to DMSO-treated sample.
Mouse derived RAW macrophages stably transfected with an ISRE-inducible Lucia were treated with various concentrations of compound 2 or DMSO control. After 20 h incubation, levels of Lucia were measured using QUANTI-luc to measure and ISRE reporter activity. […]

The target in the next assay is STING CTD (Homo sapiens, UniProt Q86WV6). Description: Thermal shift assay with STING CTD. In kind it is binding. The settings on record: 0.1 mg/mL STING CTD, compound 2 mM to 0.05 uM, SYPRO Orange, 25-80° C. Here is the method:
Thermal shift assay was conducted with 0.1 mg/mL of STING CTD with various dilutions of compound 1 from 2 mM to 0.05 uM in 10 mM HEPES (pH 7.5), 140 mM NaCl and a 5 fold dilution of SYPRO Orange dye (Invitrogen). The fluorescence signal as a function of temperature was recorded using a Real Time PCR machine (Thermo Fisher). The temperature gradient was performed in the range of 25−80° C. with a ramp of 0.2° C. over the course of 60 min. Data were analyzed with the Thermal Shift Software (Thermo Fisher), DSF analysis, and the Derivative model was used to fit the fluorescence data to obtain the midpoint temperature for the thermal protein unfolding transition (Tm) using the curve-fitting software Prism.

SMILES strings stand for the structures.

T1 sequence (Q86WV6 whole entry R71H/G230A/H232R/R293Q, canonical isoform): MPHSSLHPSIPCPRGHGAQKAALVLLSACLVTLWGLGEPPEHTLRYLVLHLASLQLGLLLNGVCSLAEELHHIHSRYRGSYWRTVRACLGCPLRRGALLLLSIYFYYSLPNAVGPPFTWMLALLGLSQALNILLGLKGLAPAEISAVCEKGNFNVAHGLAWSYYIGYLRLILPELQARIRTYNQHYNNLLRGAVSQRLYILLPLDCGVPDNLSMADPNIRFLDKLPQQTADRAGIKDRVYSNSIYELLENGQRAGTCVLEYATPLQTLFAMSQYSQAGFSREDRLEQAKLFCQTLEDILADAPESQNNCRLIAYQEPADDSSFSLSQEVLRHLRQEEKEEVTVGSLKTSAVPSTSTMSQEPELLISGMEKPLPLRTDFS
Chain of STING CTD (Q86WV6 135-379 limits assumed): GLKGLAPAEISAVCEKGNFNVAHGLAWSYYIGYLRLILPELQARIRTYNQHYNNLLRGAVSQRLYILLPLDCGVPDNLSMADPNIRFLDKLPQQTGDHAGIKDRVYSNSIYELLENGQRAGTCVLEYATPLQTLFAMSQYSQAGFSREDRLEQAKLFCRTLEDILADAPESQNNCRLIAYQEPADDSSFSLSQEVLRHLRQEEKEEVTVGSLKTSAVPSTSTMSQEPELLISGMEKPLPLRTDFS

As to `CCCCCCCCCCOc1ccc(C(=O)Oc2ccc(CSP3(=O)OC[C@H]4O[C@@H](n5cnc6c(N)ncnc65)[C@H](OP(=O)(O)OC[C@H]5O[C@@H](n6ccc(=O)[nH]c6=O)[C@H](O3)[C@@H]5F)[C@@H]4F)cc2)cc1` (stereo partly drawn) [compound 2], the “NF-κB reporter activity, induction” value in assay [1] (QUANTI-Blue (SEAP)) is “activates natural allelic variant HAQ to induce IRF and NF-κB”. In addition, the “ISRE (IRF) reporter activity, induction” value in assay [1] is listed as “activates natural allelic variant HAQ to induce IRF”; at mouse STING, “activates mouse STING to induce IRF in RAW macrophages”.
`Nc1ncnc2c1ncn2[C@@H]1O[C@@H]2COP(=O)(S)O[C@@H]3[C@H](F)[C@@H](COP(=O)(O)O[C@@H]1[C@@H]2F)O[C@H]3n1ccc(=O)[nH]c1=O` (stereo partly drawn) [compound 1]: the “ISRE (IRF) reporter activity, induction” value in assay [1] was “activates natural allelic variant HAQ to induce IRF”; on mouse STING, “activates mouse STING to induce IRF in RAW macrophages”. For the same compound, the “Binding to STING (thermal shift, Tm)” value on STING CTD is “binds to STING with high affinity”.
